Measurements taken from US10471059B2, “Compositions and methods of using tyrosine kinase inhibitors” (YALE UNIVERSITY, priority 2015, dated 2019).

Legend:
[1] = test system: PZR Y241 and Y263 phosphorylation; test: Shp2E76A-induced PZR tyrosyl phosphorylation in NIH 3T3 cells, immunoblot; assay type: cell-based; conditions: cells expressing activated Shp2 (Shp2-E76A)
[2] = test system: PZR Y241 and Y263 phosphorylation; test: Shp2 mutant-induced PZR tyrosyl phosphorylation in HEK-293 cells, immunoblot; assay type: cell-based; conditions: HEK-293 cells transfected with Shp2 mutants; 5 μM SU6656

## CC(C)(C)n1nc(-c2ccc(Cl)cc2)c2c(N)ncnc21 [PP2]
[1]
  concentration at which Shp2-E76A-induced PZR hyper tyrosyl phosphorylation was inhibited: 5 µM

## CN(C)S(=O)(=O)c1ccc2c(c1)/C(=C/c1cc3c([nH]1)CCCC3)C(=O)N2 [SU6656]
[1]
  concentration at which Shp2-E76A-induced PZR hyper tyrosyl phosphorylation was inhibited: 1 µM
[2]
  NS and NSML Shp2 mutant-induced PZR hypertyrosyl phosphorylation: can be inhibited
